In paper PMC6811774, “Potent, selective, and subunit‐dependent activation of TRPC5 channels by a xanthine derivative” (British Journal of Pharmacology, 2019):

Molecular target: T1, TRPC5-SYFP2 (TRPC5:C5 channels) (Homo sapiens, UniProt Q9UL62)
T1 construct: expressed in transfected cells
T1 sequence (Q9UL62 1-973): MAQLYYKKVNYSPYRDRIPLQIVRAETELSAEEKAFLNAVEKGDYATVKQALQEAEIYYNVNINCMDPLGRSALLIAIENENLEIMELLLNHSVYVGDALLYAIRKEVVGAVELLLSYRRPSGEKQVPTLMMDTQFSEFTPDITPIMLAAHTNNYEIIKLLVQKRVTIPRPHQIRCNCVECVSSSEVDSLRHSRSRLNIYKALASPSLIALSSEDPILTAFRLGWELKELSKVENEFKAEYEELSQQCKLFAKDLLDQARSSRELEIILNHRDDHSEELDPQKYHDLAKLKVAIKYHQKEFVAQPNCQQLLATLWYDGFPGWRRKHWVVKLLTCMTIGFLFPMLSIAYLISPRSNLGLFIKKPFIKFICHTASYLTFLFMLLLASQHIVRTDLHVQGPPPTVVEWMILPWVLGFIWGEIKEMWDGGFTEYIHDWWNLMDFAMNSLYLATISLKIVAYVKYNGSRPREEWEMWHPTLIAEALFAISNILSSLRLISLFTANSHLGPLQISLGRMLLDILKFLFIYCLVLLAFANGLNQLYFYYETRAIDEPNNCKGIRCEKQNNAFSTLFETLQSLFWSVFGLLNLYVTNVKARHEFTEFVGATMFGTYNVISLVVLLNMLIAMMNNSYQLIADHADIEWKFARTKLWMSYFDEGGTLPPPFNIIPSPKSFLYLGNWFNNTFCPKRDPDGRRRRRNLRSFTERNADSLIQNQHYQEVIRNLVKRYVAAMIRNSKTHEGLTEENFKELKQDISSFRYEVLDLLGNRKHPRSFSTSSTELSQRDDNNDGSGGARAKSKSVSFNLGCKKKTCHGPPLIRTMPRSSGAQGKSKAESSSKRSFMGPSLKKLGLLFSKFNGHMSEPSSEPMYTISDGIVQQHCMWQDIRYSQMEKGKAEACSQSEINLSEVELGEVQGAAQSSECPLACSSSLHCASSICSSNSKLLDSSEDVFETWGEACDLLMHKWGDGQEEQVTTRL
Test: [Ca2+]i measurement (Fura-2, FlexStation) in (Tet+) HEK T-REx cells expressing hTRPC5-SYFP2
Format: cell-based
Source text: To facilitate cloning of TRPC5‐SYFP2 and TRPC4‐SYFP2, a pcDNA™4/TO expression vector (ThermoFisher Scientific, Waltham, MA, USA), into which a four amino acid linker (ASAS) flanked by AgeI and SacII restriction sites had been introduced between EcoRI and XhoI restriction sites, was used (Naylor et al., 2016). Human TRPC4β was inserted between BamHI and AgeI restriction sites as described previously (Ludlow et al., 2017). Human TRPC5 (forward primer: 5′ GCTTGGTACCGCCACCATG 3′ and reverse primer: 5′ […] 3′) was inserted upstream of the linker between KpnI and AgeI restriction sites using hTRPC5/pcDNA™4/TO (Zeng et al., 2004) as a PCR template. Both constructs contained an N‐terminal Kozak sequence. SYFP2 was inserted downstream of the linker between SacII and XbaI restriction sites using pSYFP2‐C1 as a PCR template (forward primer, 5′ […] 3′; reverse primer, 5′ […] 3′). pSYFP2‐C1 was a gift from Dorus Gadella (Addgene plasmid #22878; http://n2t.net/addgene:22878; RRID:Addgene_22878; Kremers, Goedhart, van Munster, & Gadella, 2006). Plasmids were sequenced to verify identity.
HEK T‐REx™ cell line was transfected with TRPC5‐SYFP2 or TRPC4‐SYFP2 using FuGENE® HD transfection reagent. After 48 hr, cells were put under antibiotic selection using 400 μg·ml^−1 zeocin and 10 μg·ml^−1 blasticidin S (Invivogen, San Diego, California, USA). Medium changes were carried out regularly to remove dead cells. HEK T‐REx cells expressing tetracycline‐inducible human TRPC5, TRPC4–C1, and TRPC5–C1 were created as described previously (Akbulut et al., 2015; Ludlow et al., 2017; Rubaiy, Ludlow, Henrot, et al., 2017). TRPC5–C1 and TRPC4–C1 concatemers allow expression of functional channels with defined 2:2 stoichiometry that display ion permeability and current–voltage relationships distinct from those of homomeric TRPC4:C4 or TRPC5:C5 channels and consistent with those obtained upon co‐expression of TRPC1 with TRPC4 or TRPC5 (Ludlow et al., 2017; Rubaiy, Ludlow, Bon, & Beech, 2017; Rubaiy, Ludlow, Henrot, et al., 2017). Cells were cultured in DMEM‐F12 GlutaMAX (Invitrogen, Paisley, UK) containing 10% FBS (Sigma‐Aldrich, Gillingham, UK), with the addition of blasticidin (10 μg·ml^−1) and zeocin (400 μg·ml^−1) to maintain the stable incorporation of the tetracycline repressor and the channel of interest, respectively. Expression of proteins was induced by the addition of tetracycline (1 μg·ml^−1, 24 hr). Cells were maintained in a humidified incubator with 5% CO2 at 37°C. HEK 293 cells stably expressing tetracycline‐regulated human http://www.guidetopharmacology.org/GRAC/ObjectDisplayForward?objectId=494 were prepared similarly and have also been described previously (McHugh, Flemming, Xu, Perraud, & Beech, 2003). For experiments using transient co‐expression of TRPC1 and TRPC5, HEK cells at 40–60% confluency were transfected with pIRES2‐AcGFP1 and pIRES2‐DsRed‐Express2 plasmids containing human TRPC1 and TRPC5, respectively, using Lipofectamine 3000 (ThermoFisher Scientific, Yokohama, Japan). All experiments using transient expression were performed within 48 hr after transfection. A498 cells were cultured in Minimum Essential Medium containing Earle's salts (ThermoFisher Scientific, Loughborough, UK), supplemented with 10% FBS and penicillin–streptomycin (100 units per ml^−1, 100 μg·ml^−1; ThermoFisher Scientific, Loughborough, UK). CHO cells stably expressing http://www.guidetopharmacology.org/GRAC/ObjectDisplayForward?objectId=510 were maintained in Ham's Nutrient Mixture F12 (ThermoFisher Scientific, Loughborough, UK) supplemented with 10% FBS, penicillin–streptomycin, and 1 mg·ml^−1 G418 (InvivoGen, San Diego, California, USA). For experiments using hTRPC3 and hTRPC6, WT HEK 293 cells were transfected with hTRPC3 (Naylor et al., 2016) or hTRPC6 (cloned into pcDNA3) using jetPRIME® transfection reagent (VWR, Lutterworth, UK). Cells were assayed 48 hr after transfection. […]

Cn1c(=O)n(CCCO)c(=O)c2c1nc(Oc1ccc(Cl)c(OC(F)(F)F)c1)n2Cc1ccc(Cl)cc1 [AM237]
Hill slope, suppression of EA response (10 nM EA): -2.2
Effect on S1P-mediated [Ca2+]i response (0.3 to 1 nM AM237, 30 min pre-incubation, 10 μM S1P): no significant effect
Effect on [Ca2+]i in the absence of extracellular Ca2+ (0.3–300 nM, Ca2+-free SBS with 0.4 mM EGTA): did not increase
Effect on S1P-mediated activation of TRPC5:C5 (3–300 nM AM237, 30 min pre-incubation, 10 μM S1P): significantly increased
IC50 (30 min pre-incubation, then 10 nM EA, read-out: Relative IC50, suppression of EA-mediated [Ca2+]i response): 13 nM
EC50 (Control (DMSO pretreatment), competition experiment, read-out: EC50, activation): 10 nM
Effect on S1P response upon simultaneous addition (co-application of 10 μM S1P and 0.3–300 nM AM237): increases of the responses to S1P
Hill slope, activation (hTRPC5-SYFP2 concentration–response curve): 1.4
